Values after ≈ are worked out from the molar mass of the structure shown.

Among the data in ChEMBL document CHEMBL1121476, “Diaryl amidine derivatives as oncornaviral DNA polymerase inhibitors” (J Med Chem, 1980) are ID50 values, retold here.

Assay [1] deals with Gag-Pol polyprotein (Moloney murine leukemia virus isolate Shinnick) (UniProt P03355).
Description: Inhibitory dose against oncornaviral DNA polymerase activity of moloney murine leukemia virus
In assay [2] the test system is Nucleic Acid. Nature of the assay: Compound was evaluated for 50% inhibitory dose against oncornaviral DNA polymerase activity of moloney murine leukemia virus. The class given is functional.

On to `N=C(N)c1ccc2oc(/C=C/C=C/C=C/c3cc4cc(C(=N)N)ccc4o3)cc2c1`, for which, in assay [1], the ID50 amounted to 1.6 µg/mL (≈ 4.04 µM).

The compound `C(=C\c1cc2cc(C3=NCCN3)ccc2o1)/c1cc2cc(C3=NCCN3)ccc2o1` displayed an ID50 in assay [1] of 1.1 µg/mL (≈ 2.77 µM).

As to `N=C(N)Nc1ccc(-c2cc3cc(NC(=N)N)ccc3o2)cc1`, the ID50 in assay [1] was found to be 8 µg/mL (≈ 25.9 µM).

`O=C(Nc1ccc(C2=NCCN2)cc1)c1ccc(C(=O)Nc2ccc(C3=NCCN3)cc2)cc1`: the ID50 in assay [1] was found to be 200 µg/mL (≈ 442 µM).

`N=C(N)c1ccc2c(c1)[nH]c1c3cc(C(=N)N)ccc3sc21` registered an ID50 in assay [1] of 1.2 µg/mL (≈ 3.9 µM).

In turn, `N=C(N)c1ccc(/C=C/C=C/C=C/c2cc3cc(C(=N)N)ccc3o2)cc1` gave an ID50 in assay [1] of 1.6 µg/mL (≈ 4.49 µM).

Take `N=C(N)c1ccc(-c2ccc(-c3ccc(C(=N)N)cc3)[nH]2)cc1`: the ID50 in assay [1] came to 6.5 µg/mL (≈ 21.4 µM).

The compound `N=C(N)c1ccc(-c2cc3ccc(C(=N)N)cc3[nH]2)cc1` came in with an ID50 in assay [1] of 5 µg/mL (≈ 18 µM).

On to `N=C(N)c1ccc2cc(C(=N)N)[nH]c2c1`, for which the ID50 in assay [1] amounted to 70 µg/mL (≈ 348 µM).

Take `N=C(N)Nc1ccc(-c2cc3ccc(NC(=N)N)cc3s2)cc1`: the ID50 in assay [1] was found to be 6 µg/mL (≈ 18.5 µM).

`N=C(N)c1ccc(-c2c[nH]c(-c3ccc(C(=N)N)cc3)n2)cc1` displayed an ID50 in assay [1] of 10 µg/mL (≈ 32.9 µM).

For the compound `N=C(N)c1ccc2[nH]c(/C=C/c3cc4cc(C(=N)N)ccc4o3)cc2c1`, in assay [1], the ID50 amounted to 1.4 µg/mL (≈ 4.08 µM).

With `N=C(N)Nc1ccc(-c2cc3cc(NC(=N)N)ccc3s2)cc1`, the ID50 in assay [1] turned out to be 11 µg/mL (≈ 33.9 µM).

`N=C(N)c1ccc(/N=N/Nc2ccc(C(=N)N)cc2)cc1` yielded an ID50 in assay [2] of 11 µg/mL (≈ 39.1 µM).

As for `N=C(N)c1ccc(/C=C/c2ccc(C(=N)N)cc2)cc1`, the ID50 in assay [1] came to 12 µg/mL (≈ 45.4 µM).

For the compound `C(=C\c1cc2cc(C3=NCCN3)ccc2o1)/c1ccc(Oc2ccc(C3=NCCN3)cc2)cc1`, in assay [1], the ID50 was 9 µg/mL (≈ 20.1 µM).

For `N=C(N)c1ccc2oc(-c3ccc(N)cc3)cc2c1`, the ID50 in assay [1] was 270 µg/mL (≈ 1070 µM).

In assay [1], `CC[n+]1c(-c2ccccc2)c2cc(N)ccc2c2ccc(N)cc21` gave an ID50 of 1.2 µg/mL.

Regarding `N=C(N)c1ccc(-c2ccc(-c3ccc(C(=N)N)cc3)o2)cc1`, the ID50 in assay [1] was 6 µg/mL (≈ 19.7 µM).

For the compound `C/C(=C\c1cc2cc(C(=N)N)ccc2o1)c1cc2cc(C(=N)N)ccc2o1`, in assay [1], the ID50 was determined as 14 µg/mL (≈ 39.1 µM).

Turning to `N=C(N)c1ccc(Oc2ccc(/C=C/c3cc4ccc(C(=N)N)cc4[nH]3)cc2)cc1`, the ID50 in assay [1] worked out at 1.4 µg/mL (≈ 3.54 µM).

Regarding `N=C(N)c1ccc(CCc2cc3cc(C(=N)N)ccc3o2)cc1`, the ID50 in assay [1] was 120 µg/mL (≈ 392 µM).

`N=C(N)c1cccc(-c2cc3ccc(C(=N)N)cc3s2)c1` registered an ID50 in assay [1] of 8 µg/mL (≈ 27.2 µM).

With `N=C(N)c1ccc2[nH]c(/C=C/c3nc4cc(C(=N)N)ccc4[nH]3)nc2c1`, the ID50 in assay [1] was found to be 100 µg/mL (≈ 290 µM).

On to `c1cc(Oc2ccc(-c3cc4ccc(C5=NCCN5)cc4[nH]3)cc2)cc(C2=NCCN2)c1`, for which the ID50 in assay [1] turned out to be 3 µg/mL (≈ 7.12 µM).

On to `N=C(N)c1ccc(N/N=N/c2ccc(-c3cc4cc(C(=N)N)ccc4o3)cc2)cc1`, for which, in assay [1], the ID50 stood at 1.3 µg/mL (≈ 3.27 µM).

In turn, `N=C(N)c1ccc2[nH]c(-c3cc4cc(C(=N)N)ccc4o3)cc2c1` gave an ID50 in assay [1] of 0.9 µg/mL (≈ 2.84 µM).

In turn, `N=C(N)c1ccc(-c2cc3ccc(C(=N)N)cc3s2)cc1` displayed an ID50 in assay [1] of 4 µg/mL (≈ 13.6 µM).

`c1cc(-c2cc3ccc(C4=NCCN4)cc3s2)ccc1C1=NCCN1`: the ID50 in assay [1] amounted to 1.2 µg/mL (≈ 3.46 µM).

On to `N=C(N)c1ccc2oc(/C=C/c3cc4ccc(C(=N)N)cc4o3)cc2c1`, for which the ID50 in assay [1] is 1.2 µg/mL (≈ 3.48 µM).

Consider `N=C(N)c1ccc2cc(/C=C/c3cc4ccc(C(=N)N)cc4o3)oc2c1`, for which the ID50 in assay [1] came to 1.6 µg/mL (≈ 4.65 µM).

In assay [1], `N=C(N)c1cccc(-c2cc3ccc(C(=N)N)cc3[nH]2)c1` yielded an ID50 of 8 µg/mL (≈ 28.8 µM).

`N=C(N)c1ccc2oc(C(=O)Nc3ccc(C4=NCCN4)cc3)cc2c1` came in with an ID50 in assay [1] of 10 µg/mL (≈ 28.8 µM).

With `N=C(N)c1ccc(-c2[nH]c3cc(C(=N)N)ccc3c2N)cc1`, in assay [1], the ID50 is 12 µg/mL (≈ 41 µM).

In assay [1], `CN(C)/C=N/c1ccc(-c2cc3cc(/N=C/N(C)C)ccc3o2)cc1` showed an ID50 of 40 µg/mL (≈ 120 µM).

As to `N=C(N)c1cccc(-c2cc3cc(C(=N)N)ccc3s2)c1`, in assay [1], the ID50 worked out at 6 µg/mL (≈ 20.4 µM).

In the case of `N=C(N)c1ccc(N/N=C/c2cc3cc(C(=N)N)ccc3o2)cc1`, in assay [1], the ID50 is 7.5 µg/mL (≈ 23.4 µM).

With `N=C(N)c1ccc(C2Cc3cc(C(=N)N)ccc3S2(=O)=O)cc1` (centres undefined), in assay [1], the ID50 stood at 90 µg/mL (≈ 274 µM).

For the compound `N=C(N)c1ccc2oc(CCc3cc4cc(C(=N)N)ccc4o3)cc2c1`, the ID50 in assay [1] is 12 µg/mL (≈ 34.6 µM).

The compound `N=C(N)c1ccc(-c2ccc(-c3ccc(C(=N)N)cc3)s2)cc1` displayed an ID50 in assay [1] of 1.2 µg/mL (≈ 3.75 µM).

The compound `C(=C\c1cc2cc(C3=NCCN3)ccc2o1)/c1ccc(C2=NCCN2)cc1` yielded an ID50 in assay [1] of 6 µg/mL (≈ 16.8 µM).

Regarding `c1cc(-c2cc3ccc(C4=NCCN4)cc3[nH]2)ccc1C1=NCCN1`, the ID50 in assay [1] worked out at 6 µg/mL (≈ 18.2 µM).

Regarding `Cc1c(/C=C/c2oc3ccc(C(=N)N)cc3c2C)oc2ccc(C(=N)N)cc12`, the ID50 in assay [1] came out at 8 µg/mL (≈ 21.5 µM).

In assay [1], `N=C(N)c1ccc(NC(=O)c2cc3cc(C(=N)N)ccc3o2)cc1` had an ID50 of 7.5 µg/mL (≈ 23.3 µM).

`N=C(N)c1ccc(/C=C/c2cc3ccc(C(=N)N)cc3[nH]2)cc1` had an ID50 in assay [1] of 6 µg/mL (≈ 19.8 µM).

For the compound `N=C(N)c1ccc(-c2cc3cc(C(=N)N)ccc3s2)cc1`, the ID50 in assay [1] is 5 µg/mL (≈ 17 µM).

`c1cc(-c2cc3cc(C4=NCCN4)ccc3s2)ccc1C1=NCCN1` gave an ID50 in assay [1] of 2.8 µg/mL (≈ 8.08 µM).

Consider `N=C(N)c1ccc2oc(-c3c[nH]c(-c4cc5cc(C(=N)N)ccc5o4)n3)cc2c1`, for which, in assay [1], the ID50 is 2 µg/mL (≈ 5.2 µM).

The compound `N=C(N)c1cccc(-c2cc3cc(C(=N)N)ccc3[nH]2)c1` showed an ID50 in assay [1] of 4 µg/mL (≈ 14.4 µM).

In assay [1], `C/C(=C\c1cc2cc(C(=N)N)ccc2o1)c1ccc(C(=N)N)cc1` displayed an ID50 of 4 µg/mL (≈ 12.6 µM).

`N=C(N)c1cccc(Oc2ccc(-c3cc4ccc(C(=N)N)cc4[nH]3)cc2)c1` gave an ID50 in assay [1] of 6 µg/mL (≈ 16.2 µM).

As to `N=C(N)c1ccc(OCCCCCOc2ccc(C(=N)N)cc2)cc1`, the ID50 in assay [1] was determined as 100 µg/mL (≈ 294 µM).

`N=C(N)c1ccc(-c2sc3ccc(C(=N)N)cc3c2N)cc1` had an ID50 in assay [1] of 8 µg/mL (≈ 25.9 µM).

In the case of `CC(Cc1cc2cc(C(=N)N)ccc2o1)c1cc2cc(C(=N)N)ccc2o1` (centres undefined), the ID50 in assay [1] worked out at 15 µg/mL (≈ 41.6 µM).

As for `N=C(N)c1ccc(/C=C/C=C/c2cc3cc(C(=N)N)ccc3o2)cc1`, the ID50 in assay [1] came to 0.9 µg/mL (≈ 2.72 µM).

Turning to `N=C(N)c1ccc2sc(/C=C/c3cc4cc(C(=N)N)ccc4s3)cc2c1`, the ID50 in assay [1] amounted to 11 µg/mL (≈ 29.2 µM).

With `N=C(N)c1ccc(-c2nnc(-c3ccc(C(=N)N)cc3)o2)cc1`, in assay [1], the ID50 came out at 28 µg/mL (≈ 91.4 µM).

Take `C(/C=C/c1cc2cc(C3=NCCN3)ccc2o1)=C\c1ccc(C2=NCCN2)cc1`: in assay [1], the ID50 was 4 µg/mL (≈ 10.5 µM).

In assay [1], `N=C(N)c1ccc2oc(/C=C/C=C/c3cc4cc(C(=N)N)ccc4o3)cc2c1` displayed an ID50 of 3 µg/mL (≈ 8.1 µM).

In the case of `CCN(CC)CCOc1ccc2c(c1)C(=O)c1cc(OCCN(CC)CC)ccc1-2`, the ID50 in assay [1] is 75 µg/mL (≈ 183 µM).

In assay [1], `N=C(N)c1ccc2oc(/C=C/c3cc4cc(C(=N)N)ccc4s3)cc2c1` gave an ID50 of 4 µg/mL (≈ 11.1 µM).

In assay [1], `C(/C=C/c1cc2cc(C3=NCCN3)ccc2o1)=C\c1cc2cc(C3=NCCN3)ccc2o1` gave an ID50 of 1 µg/mL (≈ 2.37 µM).

With `N=C(N)N/N=C/c1ccc2cc(-c3ccc(/C=N/N=C(N)N)cc3)sc2c1`, in assay [1], the ID50 was 2 µg/mL (≈ 5.28 µM).

With `N=C(N)c1ccc(Oc2ccc(/C=C/c3cc4cc(C(=N)N)ccc4o3)cc2)cc1`, in assay [1], the ID50 is 14 µg/mL (≈ 35.3 µM).

In turn, `N=C(N)c1ccc(/C=C/c2cc3cc(C(=N)N)ccc3o2)cc1` yielded an ID50 in assay [1] of 8 µg/mL (≈ 26.3 µM).

With `C(=C\c1cc2ccc(C3=NCCN3)cc2[nH]1)/c1ccc(Oc2ccc(C3=NCCN3)cc2)cc1`, the ID50 in assay [1] amounted to 1.6 µg/mL (≈ 3.58 µM).

`N=C(N)c1ccc2oc(/C=C/c3cc4ccc(C(=N)N)cc4[nH]3)cc2c1` yielded an ID50 in assay [1] of 1.1 µg/mL (≈ 3.2 µM).

For the compound `c1cc(C2=NCCN2)ccc1Oc1ccc(-c2cc3ccc(C4=NCCN4)cc3[nH]2)cc1`, the ID50 in assay [1] is 1.4 µg/mL (≈ 3.32 µM).

The compound `N=C(N)c1ccc(Oc2ccc(-c3cc4ccc(C(=N)N)cc4[nH]3)cc2)cc1` returned an ID50 in assay [1] of 250 µg/mL (≈ 677 µM).
